Earlier results as cited in patent publication US7605257B2, “Processes for preparing water-soluble polyethylene glycol conjugates of macrolide immunosuppressants” (Wyeth, priority 2006, dated 2009).

Tested on: various solid tumors
Settings: typical IC50, inhibitor of tumor growth; read-out: IC50 against various solid tumors

Compound: CO[C@H]1C[C@@H]2CC[C@@H](C)[C@@](O)(O2)C(=O)C(=O)N2CCCC[C@H]2C(=O)O[C@H]([C@H](C)C[C@@H]2CC[C@@H](O)[C@H](OC)C2)CC(=O)[C@H](C)/C=C(\C)[C@@H](O)[C@@H](OC)C(=O)[C@H](C)C[C@H](C)/C=C/C=C/C=C/1C [Rapamycin, rapamycin]
- IC50: < 0.05 µM
